The supplement of paper PMC10307832

Assays:
Test in all cases: relative viability (nuclei count vs DMSO), 5 days (fraction); higher = more cells survive
[1] = system: A-427
In short: (§1)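 Medians of duplicate plates are given as relative viability. That measure is the nuclei count in treated wells divided by the count in vehicle wells. Counts were taken on 4× images of lung cancer cell lines in 1536-well plates, 5 days after pin-tool dosing the day after seeding with one drug alone or a fixed anchor-drug dose plus five library-drug doses (not always all listed) in √10 steps.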

[2] = system: ABC-1
In short: as §1

[3] = system: EMC-BAC-2
In short: as §1

[4] = system: HARA
In short: as §1

[5] = system: HOP-62
In short: as §1

[6] = system: LK-2
In short: as §1

[7] = system: LXF-289
In short: as §1

[8] = system: NCI-H1792
In short: as §1

[9] = system: NCI-H1944
In short: as §1

[10] = system: NCI-H1993
In short: as §1

[11] = system: NCI-H2170
In short: as §1

[12] = system: NCI-H3122
In short: as §1

[13] = system: NCI-H322M
In short: as §1

[14] = system: NCI-H522
In short: as §1

[15] = system: NCI-H596
In short: as §1

[16] = system: NCI-H727
In short: as §1

[17] = system: PC-3 [JPC-3]
In short: as §1

[18] = system: SW 900
In short: as §1

For `Cc1sc2c(c1C)C(c1ccc(Cl)cc1)=N[C@@H](CC(=O)OC(C)(C)C)c1nnc(C)n1-2` [JQ1] + NC(=O)Nc1cc(-c2cccc(F)c2)sc1C(=O)N[C@H]1CCCNC1 [AZD7762] (partner 0.2 µM), the relative viability ([1]; first compound 0.04 µM) was 0.749, the relative viability ([1]; first compound 0.1265 µM) was 0.611 and the relative viability ([1]; first compound 0.4 µM) was 0.594. The relative viability ([1]; first compound 1.265 µM) was 0.516, the relative viability ([1]; first compound 4 µM) was 0.416 and the relative viability ([2]; first compound 0.04 µM) was 0.854. The relative viability ([2]; first compound 0.1265 µM) was 0.803, the relative viability ([2]; first compound 0.4 µM) was 0.95 and the relative viability ([2]; first compound 1.265 µM) was 0.596. It also gave a relative viability ([2]; first compound 4 µM) of 0.529, a relative viability ([3]; first compound 0.04 µM) of 1.08 and a relative viability ([3]; first compound 0.1265 µM) of 0.869. The relative viability ([3]; first compound 0.4 µM) was 0.975, the relative viability ([3]; first compound 1.265 µM) was 0.725 and the relative viability ([3]; first compound 4 µM) was 0.627. The relative viability ([4]; first compound 0.04 µM) was 0.303, the relative viability ([4]; first compound 0.1265 µM) was 0.431 and the relative viability ([4]; first compound 0.4 µM) was 0.236. For the same compound, the relative viability ([4]; first compound 1.265 µM) was 0.155, the relative viability ([4]; first compound 4 µM) was 0.242 and the relative viability ([5]; first compound 0.04 µM) was 0.535. For the same compound, the relative viability ([5]; first compound 0.1265 µM) was 0.608, the relative viability ([5]; first compound 0.4 µM) was 0.37 and the relative viability ([5]; first compound 1.265 µM) was 0.103. The relative viability ([5]; first compound 4 µM) was 0.107, the relative viability ([6]; first compound 0.04 µM) was 0.464 and the relative viability ([6]; first compound 0.1265 µM) was 0.388. For the same compound, the relative viability ([6]; first compound 0.4 µM) was 0.229, the relative viability ([6]; first compound 1.265 µM) was 0.101 and the relative viability ([6]; first compound 4 µM) was 0.128. For the same compound, the relative viability ([7]; first compound 0.04 µM) was 1.12, the relative viability ([7]; first compound 0.1265 µM) was 1.07 and the relative viability ([7]; first compound 0.4 µM) was 0.851. The relative viability ([7]; first compound 1.265 µM) was 1.02, the relative viability ([7]; first compound 4 µM) was 0.512 and the relative viability ([8]; first compound 0.04 µM) was 0.62. It also gave a relative viability ([8]; first compound 0.1265 µM) of 0.46, a relative viability ([8]; first compound 0.4 µM) of 0.38 and a relative viability ([8]; first compound 1.265 µM) of 0.14. For the same compound, the relative viability ([8]; first compound 4 µM) was 0.0872, the relative viability ([9]; first compound 0.04 µM) was 0.533 and the relative viability ([9]; first compound 0.1265 µM) was 0.412. The relative viability ([9]; first compound 0.4 µM) was 0.434, the relative viability ([9]; first compound 1.265 µM) was 0.365 and the relative viability ([9]; first compound 4 µM) was 0.313. The relative viability ([10]; first compound 0.04 µM) was 0.849, the relative viability ([10]; first compound 0.1265 µM) was 0.779 and the relative viability ([10]; first compound 0.4 µM) was 0.796. The relative viability ([10]; first compound 1.265 µM) was 0.53, the relative viability ([10]; first compound 4 µM) was 0.488 and the relative viability ([11]; first compound 0.04 µM) was 0.785. For the same compound, the relative viability ([11]; first compound 0.1265 µM) was 0.564, the relative viability ([11]; first compound 0.4 µM) was 0.739 and the relative viability ([11]; first compound 1.265 µM) was 0.431. It also gave a relative viability ([11]; first compound 4 µM) of 0.379, a relative viability ([12]; first compound 0.04 µM) of 1.04 and a relative viability ([12]; first compound 0.1265 µM) of 0.965. The relative viability ([12]; first compound 0.4 µM) was 0.971, the relative viability ([12]; first compound 1.265 µM) was 0.883 and the relative viability ([12]; first compound 4 µM) was 0.693. For the same compound, the relative viability ([13]; first compound 0.04 µM) was 0.532, the relative viability ([13]; first compound 0.1265 µM) was 0.534 and the relative viability ([13]; first compound 0.4 µM) was 0.44. For the same compound, the relative viability ([13]; first compound 1.265 µM) was 0.397, the relative viability ([13]; first compound 4 µM) was 0.437 and the relative viability ([14]; first compound 0.04 µM) was 0.974. For the same compound, the relative viability ([14]; first compound 0.1265 µM) was 0.685, the relative viability ([14]; first compound 0.4 µM) was 0.774 and the relative viability ([14]; first compound 1.265 µM) was 0.52. For the same compound, the relative viability ([14]; first compound 4 µM) was 0.397, the relative viability ([15]; first compound 0.04 µM) was 1.02 and the relative viability ([15]; first compound 0.1265 µM) was 0.898. It also gave a relative viability ([15]; first compound 0.4 µM) of 0.704, a relative viability ([15]; first compound 1.265 µM) of 0.632 and a relative viability ([15]; first compound 4 µM) of 0.373. For the same compound, the relative viability ([16]; first compound 0.04 µM) was 0.735, the relative viability ([16]; first compound 0.1265 µM) was 0.61 and the relative viability ([16]; first compound 0.4 µM) was 0.539. The relative viability ([16]; first compound 1.265 µM) was 0.436, the relative viability ([16]; first compound 4 µM) was 0.405 and the relative viability ([17]; first compound 0.04 µM) was 0.709. It also gave a relative viability ([17]; first compound 0.1265 µM) of 0.849, a relative viability ([17]; first compound 0.4 µM) of 0.497 and a relative viability ([17]; first compound 1.265 µM) of 0.527. It also gave a relative viability ([17]; first compound 4 µM) of 0.438, a relative viability ([18]; first compound 0.04 µM) of 0.562 and a relative viability ([18]; first compound 0.1265 µM) of 0.556. For the same compound, the relative viability ([18]; first compound 0.4 µM) was 0.309, the relative viability ([18]; first compound 1.265 µM) was 0.2 and the relative viability ([18]; first compound 4 µM) was 0.147.

`COc1cc2nccc(Oc3ccc(NC(=O)Nc4cc(C)on4)c(Cl)c3)c2cc1OC` [Tivozanib] + NC(=O)Nc1cc(-c2cccc(F)c2)sc1C(=O)N[C@H]1CCCNC1 [AZD7762] (partner 0.2 µM) showed a relative viability ([1]; first compound 0.005 µM) of 0.75, a relative viability ([1]; first compound 0.01581 µM) of 0.795 and a relative viability ([1]; first compound 0.05 µM) of 0.728. For the same compound, the relative viability ([1]; first compound 0.1581 µM) was 0.68, the relative viability ([1]; first compound 0.5 µM) was 0.719 and the relative viability ([2]; first compound 0.005 µM) was 1.05. It also gave a relative viability ([2]; first compound 0.01581 µM) of 0.865, a relative viability ([2]; first compound 0.05 µM) of 0.895 and a relative viability ([2]; first compound 0.1581 µM) of 1.12. The relative viability ([2]; first compound 0.5 µM) was 0.785, the relative viability ([3]; first compound 0.005 µM) was 1.06 and the relative viability ([3]; first compound 0.01581 µM) was 1.15. The relative viability ([3]; first compound 0.05 µM) was 1.06, the relative viability ([3]; first compound 0.1581 µM) was 1.06 and the relative viability ([3]; first compound 0.5 µM) was 1.04. The relative viability ([4]; first compound 0.005 µM) was 0.268, the relative viability ([4]; first compound 0.01581 µM) was 0.335 and the relative viability ([4]; first compound 0.05 µM) was 0.424. The relative viability ([4]; first compound 0.1581 µM) was 0.231, the relative viability ([4]; first compound 0.5 µM) was 0.267 and the relative viability ([5]; first compound 0.005 µM) was 0.559. For the same compound, the relative viability ([5]; first compound 0.01581 µM) was 0.646, the relative viability ([5]; first compound 0.05 µM) was 0.383 and the relative viability ([5]; first compound 0.1581 µM) was 0.429. For the same compound, the relative viability ([5]; first compound 0.5 µM) was 0.467, the relative viability ([6]; first compound 0.005 µM) was 0.512 and the relative viability ([6]; first compound 0.01581 µM) was 0.278. It also gave a relative viability ([6]; first compound 0.05 µM) of 0.494, a relative viability ([6]; first compound 0.1581 µM) of 0.252 and a relative viability ([6]; first compound 0.5 µM) of 0.357. The relative viability ([7]; first compound 0.005 µM) was 1.05, the relative viability ([7]; first compound 0.01581 µM) was 1.03 and the relative viability ([7]; first compound 0.05 µM) was 1.09. For the same compound, the relative viability ([7]; first compound 0.1581 µM) was 1.21, the relative viability ([7]; first compound 0.5 µM) was 1.06 and the relative viability ([8]; first compound 0.005 µM) was 0.641. It also gave a relative viability ([8]; first compound 0.01581 µM) of 0.646, a relative viability ([8]; first compound 0.05 µM) of 0.509 and a relative viability ([8]; first compound 0.5 µM) of 0.53. It also gave a relative viability ([9]; first compound 0.005 µM) of 0.392, a relative viability ([9]; first compound 0.01581 µM) of 0.552 and a relative viability ([9]; first compound 0.05 µM) of 0.378. The relative viability ([9]; first compound 0.1581 µM) was 0.452, the relative viability ([9]; first compound 0.5 µM) was 0.487 and the relative viability ([10]; first compound 0.005 µM) was 0.722. The relative viability ([10]; first compound 0.01581 µM) was 0.714, the relative viability ([10]; first compound 0.05 µM) was 0.968 and the relative viability ([10]; first compound 0.1581 µM) was 0.631. It also gave a relative viability ([10]; first compound 0.5 µM) of 0.664, a relative viability ([11]; first compound 0.005 µM) of 0.689 and a relative viability ([11]; first compound 0.01581 µM) of 0.785. It also gave a relative viability ([11]; first compound 0.05 µM) of 0.809, a relative viability ([11]; first compound 0.5 µM) of 0.856 and a relative viability ([12]; first compound 0.005 µM) of 0.97. It also gave a relative viability ([12]; first compound 0.01581 µM) of 0.876, a relative viability ([12]; first compound 0.05 µM) of 0.974 and a relative viability ([12]; first compound 0.1581 µM) of 1.02. It also gave a relative viability ([12]; first compound 0.5 µM) of 1.02, a relative viability ([13]; first compound 0.005 µM) of 0.562 and a relative viability ([13]; first compound 0.01581 µM) of 0.767. For the same compound, the relative viability ([13]; first compound 0.05 µM) was 0.628, the relative viability ([13]; first compound 0.1581 µM) was 0.443 and the relative viability ([13]; first compound 0.5 µM) was 0.586. The relative viability ([14]; first compound 0.005 µM) was 0.903, the relative viability ([14]; first compound 0.01581 µM) was 0.793 and the relative viability ([14]; first compound 0.05 µM) was 0.784. It also gave a relative viability ([14]; first compound 0.1581 µM) of 0.811, a relative viability ([14]; first compound 0.5 µM) of 0.857 and a relative viability ([15]; first compound 0.005 µM) of 1.03. For the same compound, the relative viability ([15]; first compound 0.01581 µM) was 1.1, the relative viability ([15]; first compound 0.05 µM) was 1.44 and the relative viability ([15]; first compound 0.5 µM) was 1.06. For the same compound, the relative viability ([16]; first compound 0.005 µM) was 0.548, the relative viability ([16]; first compound 0.01581 µM) was 0.657 and the relative viability ([16]; first compound 0.05 µM) was 0.408. For the same compound, the relative viability ([16]; first compound 0.1581 µM) was 0.442, the relative viability ([16]; first compound 0.5 µM) was 0.697 and the relative viability ([17]; first compound 0.01581 µM) was 0.857. The relative viability ([17]; first compound 0.05 µM) was 0.927, the relative viability ([17]; first compound 0.1581 µM) was 0.741 and the relative viability ([17]; first compound 0.5 µM) was 0.8. The relative viability ([18]; first compound 0.005 µM) was 0.649, the relative viability ([18]; first compound 0.01581 µM) was 0.636 and the relative viability ([18]; first compound 0.05 µM) was 0.675. For the same compound, the relative viability ([18]; first compound 0.5 µM) was 0.547.
